Source: US20140107109A1, “AMINO-DIHYDROTHIAZINE AND AMINO-DIOXIDO DIHYDROTHIAZINE COMPOUNDS AS BETA-SECRETASE ANTAGONISTS AND METHODS OF USE” (Amgen Inc., priority 2012, published 2014)
pIC50: −log10 of the molar value.

What was measured:
Cathepsin D (Cat D) = biological target: T1, Cathepsin D (Cat D) (Homo sapiens, UniProt P07339); test: In vitro enzymatic Cathepsin D (Cat D) FRET assay; format: biochemical; settings: read-out: CatD IC50
T1 construct: Recombinant Cat D was expressed in CHO cells; made in house; host or cells: CHO cells
How it was run: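 Recombinant Cat D expressed in CHO cells, used at 9 nM and pre-incubated one hour with serially diluted inhibitor in DMSO. Peptide substrate carries a fluorophore and quencher flanking the cleavage site; reaction stopped with Tris buffer raising pH to neutrality, then fluorescence read.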

[1] = tested on: Aβ40 in conditioned medium of cells stably expressing Amyloid Precursor Protein (APP); test: In vitro BACE cell-based assay (HEK cell assay), Aβ40 sandwich ELISA; settings: Homo sapiens, HEK293; average IC50, cell assay
How it was run: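 APP-stably expressing cells (40K/well, grown 24 h in DMEM/10% FBS) were treated 24 h with compounds in 10-point dose response starting at 100 μM or 10 μM, 0.1% DMSO final. Secreted Aβ40 was measured by sandwich ELISA (pAb40 capture, biotinylated 6E10 detection, europium time-resolved fluorescence); IC50 from percent inhibition.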

[2] = biological target: Beta Secretase enzyme (BACE1) (Homo sapiens, UniProt P56817); test: In vitro enzymatic BACE FRET assay; format: biochemical; settings: average IC50, enzyme assay; read-out: BACE1 FRET assay IC50
How it was run: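 BACE1 cleavage of a 50 nM fluorophore/quencher peptide FRET substrate ran for one hour in 0.05 M acetate pH 4.2, 10% DMSO, 100 uM genapol. Tris buffer raised pH to neutrality to stop the reaction before fluorescence was read (excitation 488 nm, […]).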

Chain of Beta Secretase enzyme (BACE1) (P56817 46-501): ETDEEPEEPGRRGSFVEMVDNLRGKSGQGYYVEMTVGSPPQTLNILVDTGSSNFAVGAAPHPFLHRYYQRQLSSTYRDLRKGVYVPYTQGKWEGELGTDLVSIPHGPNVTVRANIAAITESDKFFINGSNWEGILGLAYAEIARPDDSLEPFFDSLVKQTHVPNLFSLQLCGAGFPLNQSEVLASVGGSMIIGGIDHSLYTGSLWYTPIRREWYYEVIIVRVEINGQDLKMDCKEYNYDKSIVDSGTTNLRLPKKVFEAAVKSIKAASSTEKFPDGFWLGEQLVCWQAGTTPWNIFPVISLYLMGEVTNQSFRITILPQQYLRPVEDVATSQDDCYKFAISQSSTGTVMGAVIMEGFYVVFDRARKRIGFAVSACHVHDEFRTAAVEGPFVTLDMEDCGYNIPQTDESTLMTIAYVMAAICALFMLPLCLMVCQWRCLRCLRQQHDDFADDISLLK
T1 sequence (P07339 65-412, species assumed): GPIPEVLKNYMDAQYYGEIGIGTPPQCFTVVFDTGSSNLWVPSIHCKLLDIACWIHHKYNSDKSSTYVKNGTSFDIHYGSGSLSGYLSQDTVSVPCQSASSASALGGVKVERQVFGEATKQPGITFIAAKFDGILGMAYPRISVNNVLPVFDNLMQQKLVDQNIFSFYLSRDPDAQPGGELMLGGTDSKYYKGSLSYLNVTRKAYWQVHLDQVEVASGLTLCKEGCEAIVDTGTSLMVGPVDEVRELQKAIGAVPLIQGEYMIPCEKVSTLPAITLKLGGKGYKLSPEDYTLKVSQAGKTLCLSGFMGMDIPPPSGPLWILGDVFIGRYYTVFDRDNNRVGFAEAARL

SMILES	pIC50 (Cathepsin D (Cat D))	pIC50 [1]	pIC50 [2]
CC#CCOc1cnc2c(Nc3ccc(F)c([C@]4(C)CS(=O)(=O)[C@@](C)(F)C(N)=N4)c3)nccc2c1 [Example 226, N-(3-((3R,6R)-5-amino-6-fluoro-3,6-dimethyl-1,1-dioxido-3,6-dihydro-2H-1,4-thiazin-3-yl)-4-fluorophenyl)-3-(2-butyn-1-yloxy)-1,7-naphthyridin-8-amine]	< 3.40	8.24	9.13
C[C@@]1(c2cc(Nc3nccc4cc(Cl)cnc34)cnc2F)CS(=O)(=O)C2(CCC2)C(N)=N1 [Example 230, N-(5-((7R)-9-amino-7-methyl-5,5-dioxido-5-thia-8-azaspiro[3.5]non-8-en-7-yl)-6-fluoro-3-pyridinyl)-3-chloro-1,7-naphthyridin-8-amine]	4.63	7.73	8.42
COc1cnc2c(Nc3cnc(F)c([C@]4(C)CS(=O)(=O)C5(CCC5)C(N)=N4)c3)nccc2n1 [Example 231, N-(5-((7R)-9-amino-7-methyl-5,5-dioxido-5-thia-8-azaspiro[3.5]non-8-en-7-yl)-6-fluoro-3-pyridinyl)-2-methoxypyrido[3,4-b]pyrazin-5-amine]	3.79	7.74	8.19
COc1cnc2c(Nc3ccc(F)c([C@@]4(C)N=C(N)C5(CCC5)S(=O)(=O)C4F)c3)nccc2n1 (stereo partly drawn) [Example 232, N-(3-((7R)-9-amino-6-fluoro-7-methyl-5,5-dioxido-5-thia-8-azaspiro[3.5]non-8-en-7-yl)-4-fluorophenyl)-2-methoxypyrido[3,4-b]pyrazin-5-amine]	3.52	7.11	7.88
CC1(C)C(N)=N[C@](CF)(c2cc(Nc3ncc(F)c4cc(Cl)cnc34)ccc2F)CS1(=O)=O [Example 233, N-(3-((3S)-5-amino-3-(fluoromethyl)-6,6-dimethyl-1,1-dioxido-3,6-dihydro-2H-1,4-thiazin-3-yl)-4-fluorophenyl)-3-chloro-5-fluoro-1,7-naphthyridin-8-amine]	3.84	7.07	9.51
CC1(C)C(N)=N[C@](CF)(c2cc(Nc3nccc4nc(C(F)(F)F)cnc34)ccc2F)CS1(=O)=O [Example 234, N-(3-((3S)-5-amino-3-(fluoromethyl)-6,6-dimethyl-1,1-dioxido-3,6-dihydro-2H-1,4-thiazin-3-yl)-4-fluorophenyl)-2-(trifluoromethyl)pyrido[3,4-b]pyrazin-5-amine]	< 4.83	6.98	8.69
CC1(C)C(N)=N[C@](CF)(c2cc(Nc3ncnc4cc(Cl)cnc34)ccc2F)CS1(=O)=O [Example 235, N-(3-((3S)-5-amino-3-(fluoromethyl)-6,6-dimethyl-1,1-dioxido-3,6-dihydro-2H-1,4-thiazin-3-yl)-4-fluorophenyl)-7-chloropyrido[3,2-d]pyrimidin-4-amine]	4.17	7.51	8.49
CC1(C)C(N)=N[C@](CF)(c2cc(Nc3ncnc4cc(C#N)cnc34)ccc2F)CS1(=O)=O [Example 236, 4-((3-((3S)-5-amino-3-(fluoromethyl)-6,6-dimethyl-1,1-dioxido-3,6-dihydro-2H-1,4-thiazin-3-yl)-4-fluorophenyl)amino)pyrido[3,2-d]pyrimidine-7-carbonitrile]	4.25	7.39	9.14
CCOc1cnc2c(Nc3ccc(F)c([C@]4(CF)CS(=O)(=O)C(C)(C)C(N)=N4)c3)nccc2n1 [Example 237, N-(3-((3S)-5-amino-3-(fluoromethyl)-6,6-dimethyl-1,1-dioxido-3,6-dihydro-2H-1,4-thiazin-3-yl)-4-fluorophenyl)-2-ethoxypyrido[3,4-b]pyrazin-5-amine]	3.18	7.39	8.55
CCOc1cnc2c(Nc3ccc(F)c([C@]4(CF)CS(=O)(=O)C5(CCC5)C(N)=N4)c3)nccc2n1 [Example 238, N-(3-((7S)-9-amino-7-(fluoromethyl)-5,5-dioxido-5-thia-8-azaspiro[3.5]non-8-en-7-yl)-4-fluorophenyl)-2-ethoxypyrido[3,4-b]pyrazin-5-amine]	< 3.40	6.93	8.40
COc1cnc2c(Nc3ccc(F)c([C@]4(CF)CS(=O)(=O)C5(CCC5)C(N)=N4)c3)nccc2c1 [Example 239, N-(3-((7S)-9-amino-7-(fluoromethyl)-5,5-dioxido-5-thia-8-azaspiro[3.5]non-8-en-7-yl)-4-fluorophenyl)-3-methoxy-1,7-naphthyridin-8-amine]	3.41	7.63	8.38
NC1=N[C@](CF)(c2cc(Nc3ncnc4cc(Cl)cnc34)ccc2F)CS(=O)(=O)C12CCC2 [Example 240, N-(3-((7S)-9-amino-7-(fluoromethyl)-5,5-dioxido-5-thia-8-azaspiro[3.5]non-8-en-7-yl)-4-fluorophenyl)-7-chloropyrido[3,2-d]pyrimidin-4-amine]	4.24	7.57	8.77
N#Cc1cnc2c(Nc3ccc(F)c([C@]4(CF)CS(=O)(=O)C5(CCC5)C(N)=N4)c3)ncc(F)c2c1 [Example 241, 8-((3-((7S)-9-amino-7-(fluoromethyl)-5,5-dioxido-5-thia-8-azaspiro[3.5]non-8-en-7-yl)-4-fluorophenyl)amino)-5-fluoro-1,7-naphthyridine-3-carbonitrile]	< 5.31	7.32	9.05
COc1cnc2c(Nc3ccc(F)c([C@]4(CF)CS(=O)(=O)C5(CCC5)C(N)=N4)c3)ncnc2c1 [Example 242, N-(3-((7S)-9-amino-7-(fluoromethyl)-5,5-dioxido-5-thia-8-azaspiro[3.5]non-8-en-7-yl)-4-fluorophenyl)-7-methoxypyrido[3,2-d]pyrimidin-4-amine]	3.92	7.85	8.83
NC1=N[C@](CF)(c2cc(Nc3nccc4cc(Cl)cnc34)ccc2F)CS(=O)(=O)C12CCC2 [Example 245, N-(3-((7S)-9-amino-7-(fluoromethyl)-5,5-dioxido-5-thia-8-azaspiro[3.5]non-8-en-7-yl)-4-fluorophenyl)-3-chloro-1,7-naphthyridin-8-amine]	3.54	7.33	9.25
COc1cnc2c(Nc3ccc(F)c([C@]4(CF)CS(=O)(=O)C5(CCC5)C(N)=N4)c3)nccc2n1 [Example 246, N-(3-((7S)-9-amino-7-(fluoromethyl)-5,5-dioxido-5-thia-8-azaspiro[3.5]non-8-en-7-yl)-4-fluorophenyl)-2-methoxypyrido[3,4-b]pyrazin-5-amine]	3.09	7.67	8.84
COc1cnc2c(Nc3ccc(F)c([C@@]45COC[C@@H]4S(=O)(=O)C(C)(C)C(N)=N5)c3)nccc2n1 [Example 247, N-(3-((4aR,7aR)-3-amino-2,2-dimethyl-1,1-dioxido-7,7a-dihydro-2H-furo[3,4-b][1,4]thiazin-4a(5H)-yl)-4-fluorophenyl)-2-methoxypyrido[3,4-b]pyrazin-5-amine]	3.32	5.55	6.15
